The test system of one assay is ABC transporter. The experiment in a line: SP cell analysis of mdr1a/1b knockout bone marrow cells treated with ABC transporter inhibitors. The note with it: treatment before and during Hoechst 33342 staining.
Another assay deals with myeloid progenitors. The experiment in a line: Drug-resistant myeloid progenitor (CFU-C) assay in methylcellulose. In kind it is cell-based, mouse. As to conditions: 25 to 50 nM, thymidine phosphorylase-treated methylcellulose.

Protocol for ABC transporter: Hoechst 33342 SP cell assay: Murine bone marrow cells were collected and resuspended at 1×10^6 cells/ml in DMEM plus 10 mM HEPES and 2%, FBS. In a water bath, the cells were allowed to equilibrate at 37° C., followed by addition of 5 μg/ml Hoechst 33342 (Fisher Scientific, Pittsburgh, Pa.) for 90 minutes as previously described [Goodell et al., J. Exp. Med., 183:1797-1806 (1996)]. Cells were then centrifuged at 4° C. and resuspended in ice cold HBSS plus 10 mM HEPES and 2% FBS at 1×10^7 cells/ml. For flow cytometric analysis or sorting, a Becton Dickinson FACS Vantage flow cytometer (Becton Dickinson, San Jose, Calif.) was configured for dual emission wavelength analysis as previously described [Goodell et al., J. Exp. Med., 183:1797-1806 (1996)]. Cells were gated based on forward and side light scatter to exclude debris. […] Cells were analyzed at approximately 5,000 cells/second until data from 1×10^6 cells were collected. The SP cell gate was defined based on normal fresh C57BL/6 bone marrow cells.
Cells were treated with either verapamil or 2-deoxyglucose. Verapamil is a competitive inhibitor of several known ABC transporters including MDR1, whereas 2-deoxyglucose is an inhibitor of ATP synthesis that depletes cellular ATP levels required for ABC transporter function.
Protocol for myeloid progenitors: Ex vivo culture and expansion of myeloid progenitors: Following transduction (day 0), cells were cultured in the presence of the growth factor combination described above. Cells were resuspended at 1×10^6 cells/ml every 3-6 days for at least 12 days of expansion. Aliquots of cells were removed for CFU-C analysis at various time points.
Retroviral-mediated gene transfer into murine hematopoietic stem cells: BM cells were harvested from C57BL/6 or B6.Ch-1/By (referred to as “HW80”) congenic mouse strains (Jackson Laboratories, Bar Harbor, Me. ) by standard methods. Following isolation, cells were placed into liquid suspension culture in Dulbecco's Modified Eagle's Medium (DMEM) (BioWhittaker, Walkersville, Md.) with 1% penicillin/streptomycin (Gibco/BRL, Grand Island, N.Y.), 15% fetal bovine serum (FBS; Hyclone, Logan Utah), 20 ng/ml murine interleukin (IL)-3®& D Systems, Minneapolis, Minn.), 50 ng/ml human IL-6 (Amgen, Thousand Oaks, Calif.), and 50 ng/ml murine stem cell factor ® & D Systems). The cells were initially plated at 1×10^6 cells/ml in 10 mls of medium. Following pre-stimulation for 48 hours, cells were replated onto confluent monolayers of irradiated ecotropic producer cell lines. The bone marrow cells were plated at the same density used in the pre-stimulation phase and in the same medium with 6 μg/ml polybrene added. […]

As for `O=CC[C@@H](O)[C@H](O)[C@H](O)CO` [2-deoxyglucose], the “Effect on SP cell phenotype” value in the assay on ABC transporter is “eliminated phenotypically identifiable SP cells”.
Take `COc1cc(NCc2ccc3nc(N)nc(N)c3c2C)cc(OC)c1OC` [trimetrexate]: the “Killing of non-transduced background cells” value in the assay with myeloid progenitors was “completely killed”.
As for `COc1ccc(CCN(C)CCCC(C#N)(c2ccc(OC)c(OC)c2)C(C)C)cc1OC` (stereo not drawn) [verapamil], the “Effect on SP cell phenotype” value in the assay on ABC transporter is recorded as “eliminated phenotypically identifiable SP cells”.

For the origin of these results see patent US6933150B1, “Relationship of ABC transport proteins with hematopoietic stem cells and methods of use thereof” (priority 1998, dated 2005).
